From patent publication US6395786B1, “Sleep inducing agent” (Taisho Pharmaceutical Co., Ltd., priority 1998, dated 2002) come the findings set out here.

This experiment deals with male rhesus monkeys. Kind of experiment: Sleep-inducing test by cisternal administration (videotape sleep score). In kind it is in vivo. As to conditions: 10 μg/monkey, 45 minutes after the administration, FIG. 2. As to the method:
[Sleep-inducing Test by Cisternal Administration]
Three male rhesus monkeys weighing 3.6-4.4 kg were individually placed in cages, and the behaviors of the animals were recorded by videotape for an hour before administration of the drug and for 5 hours after administration of the drug. Compound 32 and prostaglandin D2 methyl ester (PGD2) were each dissolved in saline solution and sterilized through a Millipore filter. The drugs were infused cisternally to the monkeys anesthetized with isohalothane inhalation. The doses were 1 μg and 10 μg/0.1 ml/monkey. The same doses of the vehicle were infused cisternally to give a control group. The test was carried out according to the following test schedule.
Week 1: Group treated with vehicle
Week 2: Group treated with 1 μg of Compound 32/monkey
Week 3: Group treated with 10 μg of Compound 32/monkey
Week 4: Group treated with 10 μg of PGD2/monkey
To determine the sleep, the period for which the monkey closed both eyes was measured at intervals of 15 minutes by playing back the recorded videotape, and the results were scored according to the following scales.

Regarding `CCCCC[C@H](O)/C=C/[C@H]1C(=O)C[C@H](O)[C@@H]1C/C=C\CCCC(=O)OC` [prostaglandin D2 methyl ester], the sleep action observed result was “transient sleep action”.
